Measurements as given in ChEMBL document CHEMBL1126596, “Potent and selective inhibitors of an aspartyl protease-like endothelin converting enzyme identified in rat lung” (J Med Chem, 1993).
Numbered stars: 1 amine (or outer) side, 2 acyl side, 3 side chain; on linkers, the order of the positions; unused ones are H or OH. Square brackets hold non-standard residues; d marks the D form. Peptide text beside a SMILES is read from it. * marks the point of attachment. ξ: configuration not given here. Sta(3ξ) = CC(C)C[C@H](N[*:1])C(O)CC(=O)[*:2]; ξN = NC(=O)CC(N)C(=O)O; Boc = CC(C)(C)OC(=O)*; X1 = C[C@@H](O)CN*

Key:
Cathepsin D = target: T1, Cathepsin D (Bos taurus, UniProt P80209); assay: Inhibition of conversion of hemoglobin by commercially purchased bovine spleen cathepsin D.
T1 sequence (P80209 whole entry): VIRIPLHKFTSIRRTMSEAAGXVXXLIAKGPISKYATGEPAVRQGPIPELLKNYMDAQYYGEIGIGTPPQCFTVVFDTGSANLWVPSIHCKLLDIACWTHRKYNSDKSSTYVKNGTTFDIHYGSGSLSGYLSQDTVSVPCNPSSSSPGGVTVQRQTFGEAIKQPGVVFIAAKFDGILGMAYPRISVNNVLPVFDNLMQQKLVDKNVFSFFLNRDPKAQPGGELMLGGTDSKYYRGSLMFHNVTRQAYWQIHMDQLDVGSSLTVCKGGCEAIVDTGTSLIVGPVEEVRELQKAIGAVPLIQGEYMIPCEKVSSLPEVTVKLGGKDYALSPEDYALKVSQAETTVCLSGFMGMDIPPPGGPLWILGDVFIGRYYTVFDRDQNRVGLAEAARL

Renin = target: T2, Renin (Homo sapiens, UniProt P00797); assay: In vitro inhibition of partially purified human renin at pH 6.0.
T2 sequence (P00797 whole entry): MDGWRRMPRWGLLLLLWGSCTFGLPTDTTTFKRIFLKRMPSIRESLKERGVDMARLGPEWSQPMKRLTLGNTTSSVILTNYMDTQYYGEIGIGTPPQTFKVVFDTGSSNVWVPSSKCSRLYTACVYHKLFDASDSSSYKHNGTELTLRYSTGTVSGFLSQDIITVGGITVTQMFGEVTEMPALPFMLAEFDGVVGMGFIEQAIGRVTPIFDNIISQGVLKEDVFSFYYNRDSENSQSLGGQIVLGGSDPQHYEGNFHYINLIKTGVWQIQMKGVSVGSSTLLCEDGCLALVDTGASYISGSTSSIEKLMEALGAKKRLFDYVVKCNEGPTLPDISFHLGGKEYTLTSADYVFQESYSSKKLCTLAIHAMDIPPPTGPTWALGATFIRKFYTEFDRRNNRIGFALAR

SMILES	IC50 (Cathepsin D) [nM]	IC50 (Renin) [nM]
CCOC(=O)CC(O)C(CC(C)C)NC(=O)C(NC(=O)C(NC(=O)OC(C)(C)C)C(C)(C)C)C(C)CC (stereo not given)	280	> 10000
CCOC(=O)CCNC(=O)CC(O)[C@H](CC(C)C)NC(=O)[C@@H](NC(=O)[C@@H](NC(=O)OC(C)(C)C)C(C)CC)C(C)CC (stereo not given in full)	60	–
CCC(C)[C@H](NC(=O)OC(C)(C)C)C(=O)N[C@H](C(=O)N[C@@H](CC(C)C)C(O)CC(=O)NCCCCO)C(C)CC (stereo not given in full)	82	–
CCOC(=O)CC(O)[C@H](CC(C)C)NC(=O)[C@@H](NC(=O)[C@@H](NC(=O)OC(C)(C)C)[C@@H](C)OC(C)(C)C)C(C)CC (stereo not given in full)	470	–
CCC(C)[C@H](NC(=O)OC(C)(C)C)C(=O)N[C@H](C(=O)N[C@@H](CC(C)C)C(O)CC(=O)NCCCCCO)C(C)CC (stereo not given in full)	51	–
CCC(C)[C@H](NC(=O)[C@H](CC1CCCCC1)NC(=O)OC(C)(C)C)C(=O)N[C@@H](Cc1c[nH]c2ccccc12)C(O)CC(=O)O (stereo not given in full)	12000	–
CCC(C)[C@H](NC(=O)OC(C)(C)C)C(=O)N[C@H](C(=O)N[C@@H](CC(C)C)C(O)CC(=O)NCCC(=O)O)C(C)CC (stereo not given in full)	190	> 10000
CC[C@@H](C)[C@H](NC(=O)[C@H](CC1CCCCC1)NC(=O)CCC(=O)O)C(=O)N[C@@H](Cc1ccc2ccccc2c1)[C@@H](O)[C@@H](O)CC(C)C	60	–
CC[C@@H](C)[C@H](NC(=O)OC(C)(C)C)C(=O)N[C@H](C(=O)N[C@@H](CC(C)C)C(O)CC(=O)NC[C@@H](C)O)[C@H](C)CC (stereo not given in full)	120	–
CC[C@@H](C)[C@H](NC(=O)[C@H](CC1CCCCC1)NC(=O)OC(C)(C)C)C(=O)N[C@@H](Cc1cccc2ccccc12)[C@@H](O)[C@@H](O)CC(C)C	> 10000	–
CC[C@@H](C)[C@H](NC(=O)OC(C)(C)C)C(=O)N[C@H](C(=O)N[C@@H](Cc1ccc2ccccc2c1)[C@@H](O)[C@@H](O)CC(C)C)[C@H](C)CC	> 10000	> 10000
CC[C@@H](C)[C@H](NC(=O)OC(C)(C)C)C(=O)N[C@H](C(=O)N[C@@H](Cc1c[nH]c2ccccc12)C(O)CC(=O)O)[C@H](C)CC (stereo not given in full)	> 10000	> 10000
CC[C@@H](C)[C@H](NC(=O)OC(C)(C)C)C(=O)N[C@H](C(=O)N[C@@H](CC(C)C)C(O)CC(=O)NC(C)C)[C@H](C)CC (stereo not given in full)	120	–
CC[C@@H](C)[C@H](NC(=O)OC(C)(C)C)C(=O)N[C@H](C(=O)N[C@@H](CC(C)C)C(O)CC(=O)NCCC(C)C)[C@H](C)CC (stereo not given in full)	82	–
CC[C@@H](C)[C@H](NC(=O)OC(C)(C)C)C(=O)N[C@H](C(=O)N[C@@H](Cc1c[nH]c2ccccc12)C(O)CC(=O)N[C@H](C(=O)O)C(C)C)[C@H](C)CC (stereo not given in full)	> 10000	–
CC[C@@H](C)[C@H](NC(=O)[C@H](CC1CCCCC1)NC(=O)OC(C)(C)C)C(=O)N[C@@H](CC(C)C)[C@@H](O)CC(=O)NCCN1CCOCC1	480	–
CC[C@@H](C)[C@H](NC(=O)OC(C)(C)C)C(=O)N[C@H](C(=O)N[C@@H](CC(C)C)C(O)CC(=O)N(C)CC(C)C)[C@H](C)CC (stereo not given in full)	58	> 10000
CC[C@H](C)[C@H](NC(=O)OC(C)(C)C)C(=O)N[C@H](C(=O)N[C@@H](CC(C)C)C(O)CC(=O)N[C@@H](CC(N)=O)C(=O)NC[C@H](C)O)[C@@H](C)CC (stereo not given in full)	1700	–
CC[C@H](C)[C@H](NC(=O)[C@H](CC1CCCCC1)NC(C)=O)C(=O)N[C@@H](Cc1ccc2ccccc2c1)[C@@H](O)[C@@H](O)CC(C)C	180	–
CC[C@H](C)[C@H](NC(=O)[C@H](CC1CCCCC1)NC(=O)OC(C)(C)C)C(=O)N[C@@H](Cc1ccc2ccccc2c1)[C@@H](O)[C@@H](O)CC(C)C	63	> 10000
CC[C@H](C)[C@H](NC(=O)[C@H](CC1CCCCC1)NC(=O)OC(C)(C)C)C(=O)N[C@@H](CC1CCCCC1)[C@@H](O)[C@@H](O)CC(C)C	55	< 10
CCOC(=O)CC(O)[C@H](CC(C)C)NC(=O)[C@@H](NC(=O)[C@@H](NC(=O)OC(C)(C)C)C1CCCCC1)[C@@H](C)CC (stereo not given in full)	93	–
CC[C@H](C)[C@H](NC(=O)[C@H](CC1CCCCC1)NC(=O)OC(C)(C)C)C(=O)N[C@@H](CC(C)C)[C@@H](O)CC(=O)NCCc1ccccn1	37	> 1000

SMILES	IC50 (Cathepsin D) [nM]	IC50 (Renin) [nM]
CC[C@H](C)[C@H](NC(=O)[C@H](CC1CCCCC1)NC(=O)OC(C)(C)C)C(=O)N[C@@H](Cc1c[nH]c2ccccc12)C(O)CC(=O)N[C@H](C(=O)O)C(C)C (stereo not given in full)	620	> 10000
CC[C@H](C)[C@H](NC(=O)[C@@H](NC(=O)OC(C)(C)C)C1CCCCC1)C(=O)N[C@@H](CC(C)C)C(O)CC(=O)O (stereo not given in full)	350	–
CC[C@H](C)[C@H](NC(=O)[C@H](CC1CCCCC1)NC(=O)OC(C)(C)C)C(=O)N[C@@H](CC(C)C)C(O)CC(=O)O (stereo not given in full)	130	> 10000
CC[C@H](C)[C@H](NC(=O)[C@H](CC1CCCCC1)NC(=O)OC(C)(C)C)C(=O)N[C@@H](Cc1c[nH]c2ccccc12)[C@@H](O)[C@@H](O)CC(C)C	210	> 10000
CCOC(=O)CC(O)[C@H](CC(C)C)NC(=O)[C@@H](NC(=O)[C@@H](NC(=O)OC(C)(C)C)[C@@H](C)CC)[C@@H](C)CC (stereo not given in full)	160	–
CCOC(=O)C[C@@H](O)[C@H](CC(C)C)NC(=O)[C@@H](NC(=O)[C@@H](NC(=O)OC(C)(C)C)[C@@H](C)CC)[C@@H](C)CC	4600	–
CCOC(=O)C[C@H](O)[C@H](CC(C)C)NC(=O)[C@@H](NC(=O)[C@@H](NC(=O)OC(C)(C)C)[C@H](C)CC)[C@@H](C)CC	21	–
CC[C@H](C)[C@H](NC(=O)OC(C)(C)C)C(=O)N[C@H](C(=O)N[C@@H](CC(C)C)C(O)CC(N)=O)[C@@H](C)CC (stereo not given in full)	410	–
CC[C@H](C)[C@H](NC(=O)[C@H](CC1CCCCC1)NS(=O)(=O)N1CCN(C)CC1)C(=O)N[C@@H](Cc1ccc2ccccc2c1)[C@@H](O)[C@@H](O)CC(C)C	110	–
CC[C@H](C)[C@H](NC(=O)[C@H](CC1CCCCC1)NC(=O)N(C)CCN(C)C)C(=O)N[C@@H](Cc1ccc2ccccc2c1)[C@@H](O)[C@@H](O)CC(C)C	280	500
CC[C@H](C)[C@H](NC(=O)[C@H](CC1CCCCC1)NC(=O)OC(C)(C)C)C(=O)N[C@@H](CC(C)C)[C@@H](O)CC(=O)NCCN(C)C	300	–
CC[C@H](C)[C@H](NC(=O)OC(C)(C)C)C(=O)N[C@H](C(=O)N[C@@H](CC(C)C)C(O)CC(=O)NCC1CCCCC1)[C@@H](C)CC (stereo not given in full)	540	–
CC[C@H](C)[C@H](NC(=O)OC(C)(C)C)C(=O)N[C@H](C(=O)N[C@@H](CC(C)C)C(O)CC(=O)NCC(C)C)[C@@H](C)CC (stereo not given in full)	65	> 10000
CC[C@H](C)[C@H](NC(=O)[C@H](CC(C)(C)C)NC(=O)OC(C)(C)C)C(=O)N[C@@H](CC(C)C)C(O)CC(=O)O (stereo not given in full)	150	–
CCOC(=O)CC(O)[C@H](CC(C)C)NC(=O)[C@@H](NC(=O)[C@H](CC(C)(C)C)NC(=O)OC(C)(C)C)[C@@H](C)CC (stereo not given in full)	72	–
CCC(C)C(NC(=O)C(NC(=O)OC(C)(C)C)C(C)(C)C)C(=O)NC(CC(C)C)C(O)CC(=O)O (stereo not given)	1100	> 10000
CCC(C)[C@H](NC(=O)OC(C)(C)C)C(=O)N[C@H](C(=O)N[C@@H](CC(C)C)C(O)CC(=O)O)C(C)CC (stereo not given in full)	2600	> 10000
CCC(C)[C@H](NC(=O)[C@@H](NC(=O)OC(C)(C)C)[C@@H](C)OC(C)(C)C)C(=O)N[C@@H](CC(C)C)C(O)CC(=O)O (stereo not given in full)	1300	–
CCC(C)[C@H](NC(=O)[C@H](CC1CCCCC1)NC(=O)N1CCOCC1)C(=O)N[C@@H](Cc1ccc2ccccc2c1)[C@@H](O)[C@@H](O)CC(C)C (stereo not given in full)	68	–
CCC(C)[C@H](NC(=O)[C@H](CC1CCCCC1)NC(=O)N1CCN(C)CC1)C(=O)N[C@@H](Cc1ccc2ccccc2c1)[C@@H](O)[C@@H](O)CC(C)C (stereo not given in full)	1100	–
CCC(C)[C@H](NC(=O)[C@@H](N)CC1CCCCC1)C(=O)N[C@@H](Cc1ccc2ccccc2c1)[C@@H](O)[C@@H](O)CC(C)C (stereo not given in full)	2500	–
CC[C@H](C)[C@H](NC(=O)OC(C)(C)C)C(=O)N[C@H](C(=O)N[C@@H](CC(C)C)C(O)CC(=O)N[C@H](C(=O)NC(CC(N)=O)C(=O)NC[C@@H](C)O)C(C)C)[C@@H](C)CC (stereo not given in full) (Boc-II[Sta(3ξ)]V[ξN]-X1)	200	–
